# According to patent US11596622B2, “Mazindol treatment for heroin dependence and substance use disorder” (NLS Pharmaceutics AG, priority 2017, dated 2023):
# Legend:
# Format in all cases: in vivo
# C57BL/6J mice = test: Conditioned place preference induced by the drug itself; conditions: for Distance travelled in the drug-paired compartment / Distance travelled in the two compartments (Drug + Vehicle) / Distance travelled in the vehicle-paired compartment / Distance travelled, drug-paired minus vehicle-paired compartment / Time spent in the drug-paired compartment / Time spent in the vehicle-paired compartment / Time spent, drug-paired minus vehicle-paired compartment: vehicle before preference session, day 12, mean
# Text: Conditioned place preference (CPP) is a widely used procedure for studying the potential addictive effect of drugs. CPP is based upon the tendency of rodents to approach a stimulus that has previously been paired with an incentive state induced by a drug. A drug that induces a CPP may be suspected to present reinforcing effects that could lead to addiction. Numerous addictive drugs, such as opiate agonists or stimulants induce a CPP and a behavioral sensitization.
# The effect of mazindol on place preference was examined in C57BL/6J mice using a method similar to the one used by Schlussman et al. (9).
# The second experiment consisted in determining the optimal dose of heroin which induces the most significant CPP. For this purpose, the CPP induced by heroin at 1.25, 2.5 and 5 mg/kg was examined.
# (§1) Following the habituation session (on day 1), animals (N=72) were pseudo-randomly assigned to two groups, a Control group (N=12) and a Heroin group (N=60), in a way that there was no significant difference between the two groups for the total distance travelled in the apparatus and for the percentage of time spent and the percentage distance travelled in the grey compartment and in the striped compartment.
# Animals received the following treatments immediately before drug sessions: • Control group: vehicle • Heroin group: heroin (1.25 mg/kg)
# as §1, with “three” for “two”, “(N=12),” for “(N=12) and”, “(N=48) and a Mazindol group (N=12),” for “(N=60),”
# Animals received the following treatments before drug sessions: • Control group: vehicle, i.p. immediately before session. • Heroin group: heroin (1.25 mg/kg), i.p. immediately before session. • MAZ 2 group: mazindol (2 mg/kg), i.p. 60 min before session.
# Animals received the following treatments before preference session: • Control group: vehicle of mazindol, i.p. 60 min before testing. • Hero group: vehicle of mazindol, i.p. 60 min before testing. • Hero-Mz 1 group: mazindol (1 mg/kg), i.p. 60 min before testing. • Hero-Mz 2 group: mazindol (2 mg/kg), i.p. 60 min before testing. • Hero-A 1 group: D-amphetamine (1 mg/kg), i.p. 30 min before testing. • MAZ 2 group: vehicle of mazindol, i.p. 60 min before testing.
# [1] = Heroin intoxication procedure after Jiang et al., mortality; conditions: two subcutaneous injections/day of heroin at increasing doses (3 to 30 mg/kg)
# Method: In the protocol planned before, it was planned to follow the method used by Jiang et al. Mice had to receive two subcutaneous injections/day of heroin at increasing doses (3 to 30 mg/kg) for 9 consecutive days and a single injection on the 10th day. […] It is likely that the discrepancy of toxicity between our experiments and the study of Jiang et al. partly resulted from difference in purity of heroin. Therefore, it was necessary to develop a method allowing to observe clear withdrawal symptoms and an acceptable mortality rate. This method is presented below. For information, 178 rats, including those used for the development of the method, have been used for this study of which 54 have been included in the results presented here.
# Sprague-Dawley rats = test: Naloxone precipitated withdrawal syndrome of heroin
# Method: The abrupt cessation of chronic opiate use results in a well characterized withdrawal syndrome with symptoms that include pain sensitivity, dysphoria, irritability, restlessness, insomnia, diarrhea and hyperventilation. In the present model, the naloxone-precipitated withdrawal syndrome is measured in rodents. Animals are chronically treated with a drug, e.g. morphine or heroin. Opiate withdrawal syndrome is elicited by an acute injection of the opiate antagonist Naloxone.
# The effect of mazindol on heroin withdrawal syndrome elicited by naloxone was examined in Sprague-Dawley rats using a method similar to the one used by Jiang et al. (10),
# Animals were subdivided into two groups. One group received heroin two i.p. injections/day for 12 consecutive days and a single injection on the 13th day (total: 25 injections) as exposed in Table 3 group received saline instead of heroin following the same protocol.
# On day 13, animals received treatments and were tested according to the following time schedule: • T=0: i.p. injection of heroin (15 mg/kg) or vehicle. • T=2.5 h: animals individually placed in a transparent Plexiglas observation boxes (40×40×40 cm). • T=3.5 h: i.p. injection of treatment (see below). • T=4 h: i.p. injection of naloxone (5 mg/kg), start of test: observation of withdrawal symptoms as indicated in Table 4. • T=5 h: end of test, animals placed back into their home cages.
# Animals received the following treatments at T 3.5 h (i.e. 30 min before injection of naloxone and observation of symptoms): • 1) Animals treated with saline during the intoxication period (days 1-12) and at T0 on day 13: • Saline group (N=8): saline (0.9% NaCl). • 2) Animals treated with […] during the intoxication period (days 1-12) and at T0 on day 13: • Hero group (N=14): saline (0.9% NaCl). • Amph 1 group (N=4): D-amphetamine (1 mg/kg). • Maz 0.125 group (N=5): mazindol (0.125 mg/kg). • Maz 0.25 group (N=6): mazindol (0.25 mg/kg). • Maz 0.5 group (N=6): mazindol (0.5 mg/kg). • Maz 1 group (N=6): mazindol (1 mg/kg). • Maz 2 group (N=5): mazindol (2 mg/kg).
# A weighting factor was ascribed for each sign from which a score was calculated.
# Examples: • Body weight before naloxone injection=241 g; after naloxone injection=236 g: • Weight loss score=2=100×(241−236)/241 • Number of escape attempts=8: • Score for escape attempts=2 • Profuse salivation present: • Score for profuse salivation
# A global withdrawal score was then calculated: • Global score=the sum of the scores
# [2] = Hero group N = 12 (Table 6): heroin 1.25 mg/kg i.p. before drug sessions
# [3] = Hero group N = 24 (Table 5): heroin 1.25 mg/kg i.p. before drug sessions
# [4] = Hero n = 14: heroin i.p. days 1-13 (2-15 mg/kg), saline 30 min before naloxone 5 mg/kg, mean
# [5] = heroin-treated vs. saline rats, naloxone 5 mg/kg
smiles,measurement,setting,value
CC(=O)Oc1ccc2c3c1O[C@H]1[C@@H](OC(C)=O)C=C[C@H]4[C@@H](C2)N(C)CC[C@@]341 [Heroin],Distance travelled in the drug-paired compartment,C57BL/6J mice; [2],7919.1 cm
same,Distance travelled in the two compartments (Drug + Vehicle),C57BL/6J mice; [2],13647.5 cm
same,Distance travelled in the vehicle-paired compartment,C57BL/6J mice; [2],5728.4 cm
same,"Distance travelled, drug-paired minus vehicle-paired compartment",C57BL/6J mice; [2],2190.6 cm
same,Time spent in the drug-paired compartment,C57BL/6J mice; [2],1063.0 s
same,Time spent in the vehicle-paired compartment,C57BL/6J mice; [2],737.0 s
same,"Time spent, drug-paired minus vehicle-paired compartment",C57BL/6J mice; [2],325.9 s
same,Distance travelled in the drug-paired compartment,C57BL/6J mice; [3],7943.6 cm
same,Distance travelled in the two compartments (Drug + Vehicle),C57BL/6J mice; [3],13892.0 cm
same,Distance travelled in the vehicle-paired compartment,C57BL/6J mice; [3],5948.4 cm
same,"Distance travelled, drug-paired minus vehicle-paired compartment",C57BL/6J mice; [3],1995.3 cm
same,Time spent in the drug-paired compartment,C57BL/6J mice; [3],1023.7 s
same,Time spent in the vehicle-paired compartment,C57BL/6J mice; [3],776.3 s
same,"Time spent, drug-paired minus vehicle-paired compartment",C57BL/6J mice; [3],247.4 s
same,place preference induced by the drug,C57BL/6J mice; heroin 1.25 mg/kg before drug sessions,induced a place preference
same,total distance travelled in two compartments (FIG. 3),"C57BL/6J mice; heroin 1.25 mg/kg before drug sessions, preference session",No significant modification
same,CPP induced by heroin (second experiment),"C57BL/6J mice; heroin 1.25, 2.5 and 5 mg/kg",induced CPP at the three doses tested
same,mortality,[1],substantial mortality
same,Abdominal constrictions score (Abd C),Sprague-Dawley rats; [4],4.1
same,Abnormal posture score (Ab P),Sprague-Dawley rats; [4],0.2
same,Chromodacryorrhea score (Chr),Sprague-Dawley rats; [4],1.1
same,Diarrhea score (Diarr),Sprague-Dawley rats; [4],2.0
same,Erection or ejaculation score (Er Ej),Sprague-Dawley rats; [4],0.0
same,Escape attempts score (Esc A),Sprague-Dawley rats; [4],1.1
same,Facial fasciculation or teeth chattering score (F F T C),Sprague-Dawley rats; [4],2.0
same,Global Score,Sprague-Dawley rats; [4],22.4
same,Irritability score (Irrit),Sprague-Dawley rats; [4],0.0
same,Profuse salivation score (Pr Sal),Sprague-Dawley rats; [4],5.5
same,Ptosis score (Ptos),Sprague-Dawley rats; [4],0.1
same,Swallowing movements score (Sw M),Sprague-Dawley rats; [4],0.9
same,Weight loss score (W Los),Sprague-Dawley rats; [4],1.9
same,Wet dog shakes score (W D S),Sprague-Dawley rats; [4],3.4
same,"global score and scores for weight loss, escape attempts, wet dog shake, diarrhea, facial fasciculation or teeth chattering and profuse salivation",Sprague-Dawley rats; [5],induced an increase
same,scores for abdominal constrictions and chromodacryorrhea,Sprague-Dawley rats; [5],non-significantly increased
